In patent US20060063736A1, “Compositions and methods for inhibiting mucin-type O-linked glycosylation” (priority 2004, published 2006):

What was measured:
HEK 293T cells [1] = assay: Jacalin staining of O-linked glycans on HEK 293T cells; assay type: cell-based, human; settings: 100 μM, 24 h
Method: (§1) HEK 293T cells were seeded at 20,000 cells/mL in a 24-well plate (Costar) fit with glass cover slips (Fisher). After 24 h of incubation with 100 μM 1-68A, cells were washed twice with PBS (pH 7.4) and fixed with 4% paraformaldehyde-PBS for 1 h at rt. The cells were washed twice with PBS and incubated with permeabilization solution (0.1% Triton X-100 in 0.1% sodium citrate, freshly prepared) for 2 min on ice. After the cells were washed twice with PBS, 50 μL of TUNEL reaction mixture (1:10 dilution, Boehringer Mannheim) was added. The plate was covered with parafilm to avoid evaporative loss and incubated in a humidified atmosphere for 1 h at 37° C. in the dark. The cells were then rinsed three times with PBS and blocked with 2% BSA in PBST (PBS, 0.05% Tween 20) for 30 min at rt. Following one wash with PBS, the cells were incubated with 100 μL of FITC-jacalin (4 μg/mL in PBST) for 1 h at 37° C. in the dark. […] Slides were analyzed by fluorescence microscopy (Zeiss, using Openlab software).
(§2) To determine if the inhibition of O-linked glycosylation and induction of apoptosis by 1-68A and 2-68A were specific to Jurkat cells, the effects of 1-68A on human embryonic kidney (HEK) 293T cells were evaluated. In this case, O-linked glycans on the cell surface were monitored by staining with jacalin, a lectin that binds core 1 structures (Galβ1,3-GalNAcα1-Ser/Thr). […]

HEK 293T cells [2] = assay: TUNEL staining of HEK 293T cells (apoptosis); assay type: cell-based, human; settings: 100 μM, 24 h
Method: as §1, §2

SMILES: O=c1ccn([C@@H]2O[C@H](CON=Cc3ccc(O)c(O)c3O)[C@@H](O)[C@H]2O)c(=O)[nH]1 [1-68A]
- effect on jacalin staining (HEK 293T cells [1]): inhibits
- effect on TUNEL staining compared to untreated cells (HEK 293T cells [2]): increases
